Reference: patent publication US11033600B2, “Protease transition state inhibitor prodrugs” (priority 2016, dated 2021)
Where two headings read alike, the source gives them in different places.

Key:
[1] = tested on: NV in replicon harboring cells (HG23 cells); assay: Cell-based assay: virus replication in NV replicon harboring cells (HG23 cells), qRT-PCR; set-up: species or system norovirus (NV)
Protocol: The effects of each inhibitor on virus replication were examined against NV in the NV replicon harboring cells (HG23 cells). Briefly, confluent and semi-confluent HG23 cells were incubated with medium containing DMSO (<0.1%) or each compound (up to 200 uM) for 48 h. After the incubation, total RNA was extracted and viral genome was quantitated with real-time quantitative RT-PCR (qRT-PCR). The EC50 values were determined by GraphPadPrism software.

[2] = molecular target: norovirus 3CL protease (NV 3CLpro) (Norovirus, UniProt Q83883); assay: FRET protease assay (3CL protease), enzyme inhibition; assay type: biochemical
Protocol: FRET protease assays. The FRET protease assay (3CL protease) was performed by preparing stock solutions of the substrate (Edans-DFHLQ/GP-Dabcyl, SEQ ID NO:1) and inhibitor in DMSO and diluting into assay buffer which was comprised of 20 mM HEPES buffer, pH 8, containing NaCl (200 mM), 0.4 mM EDTA, glycerol (60%), and 6 mM dithiothreitol (DTT). The protease was mixed with serial dilutions of each compound up to 100 μM or with DMSO in 25 μL of assay buffer and incubated at 37° C. for 30 min, followed by the addition of 25 μL of assay buffer containing substrate. Fluorescence readings were obtained using an excitation wavelength of 360 nm and an emission wavelength of 460 nm on a fluorescence microplate reader (FLx800; Biotec, Winoosk, Vt.) 1 h following the addition of substrate. Relative fluorescence units (RFU) were determined by subtracting background values (substrate-containing well without protease) from the raw fluorescence values. The dose-dependent FRET inhibition curves were fitted with a variable slope by using GraphPad Prism software (GraphPad, La Jolla, Calif.) in order to determine the IC50 values of the inhibitors.

[3] = IV, SC and PO routes, rats
[4] = Table 1, ester prodrugs, HG23 cells, 48 h, read-out: EC50 (50% effective concentration in cell culture)
[5] = Table 1, ester prodrugs, average of at least two determinations, read-out: IC50 (50% inhibitory concentration in the enzyme assay)
[6] = Table 2, carbamate prodrugs, HG23 cells, 48 h, read-out: EC50
[7] = Table 2, carbamate prodrugs, read-out: IC50
[8] = Norovirus, HG23, given in M, read-out: EC50

Sequence of norovirus 3CL protease (NV 3CLpro) (Q83883 1101-1281): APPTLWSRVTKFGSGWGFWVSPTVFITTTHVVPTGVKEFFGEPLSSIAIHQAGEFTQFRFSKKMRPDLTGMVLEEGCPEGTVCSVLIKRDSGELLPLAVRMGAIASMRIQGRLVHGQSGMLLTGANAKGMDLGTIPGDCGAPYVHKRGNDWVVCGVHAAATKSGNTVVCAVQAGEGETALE

SMILES | EC50 [1, 4] | IC50 [2, 5] | EC50 [1, 6] | IC50 [2, 7] | also measured
CCCCCC(=O)OC([C@H](C[C@@H]1CCNC1=O)NC(=O)[C@H](CC1CCCCC1)NC(=O)OCc1cccc(Cl)c1)S(=O)(=O)O (stereo partly drawn) [Compound 11, (5S,8S)-1-(3-Chlorophenyl)-5-(cyclohexylmethyl)-3,6,11-trioxo-8-(((S)-2-oxopyrrolidin-3-yl)methyl)-2,10-dioxa-4,7-diazahexadecane-9-sulfonate] | 15 nM | 0.1 µM | – | – | Conversion of prodrug to the aldehyde form (compound 25) in rat plasma [3]: most of compound 11 was converted to the aldehyde form
CCCCCCOC(=O)OC([C@H](CC1CCNC1=O)NC(=O)[C@H](CC1CCCCC1)NC(=O)OCc1cccc(Cl)c1)S(=O)(=O)O (stereo partly drawn) [Compound 17, (5 S, 8S)-1-(3-chlorophenyl)-5-(cyclohexylmethyl)-3,6,11-trioxo-8-((2-oxo-pyrrolidin-3-yl)methyl)-2,10,12-trioxa-4,7-diazaoctadecane-9-sulfonate] | 25 nM | 0.8 µM | – | – | –
COC(=O)C(NC(=O)OC([C@H](C[C@@H]1CCNC1=O)NC(=O)[C@H](CC1CCCCC1)NC(=O)OCc1cccc(Cl)c1)S(=O)(=O)O)C(C)C (stereo partly drawn) [Compound 22, (5 S,8S)-1-(3-Chlorophenyl)-5-(cyclohexylmethyl)-13-isopropyl-3,6,11,14-tetraoxo-8-(((S)-2-oxopyrrolidin-3-yl)methyl)-2,10,15-trioxa-4,7,12-triazahexadecane-9-sulfonate] | – | – | 40 nM | 0.5 µM | –
COC(=O)C(NC(=O)OC([C@H](C[C@@H]1CCNC1=O)NC(=O)[C@H](CC(C)C)NC(=O)OCc1ccccc1)S(=O)(=O)O)C(C)C (stereo partly drawn) [Compound 20, (5 S,8S)-5-Isobutyl-13-isopropyl-3,6,11,14-tetraoxo-8-(((S)-2-oxopyrrolidin-3-yl)methyl)-1-phenyl-2,10,15-trioxa-4,7,12-triazahexadecane-9-sulfonate] | – | – | 400 nM | 2.5 µM | –
CCCCCC(=O)OC([C@H](C[C@@H]1CCNC1=O)NC(=O)[C@H](CC(C)C)NC(=O)OCc1ccccc1)S(=O)(=O)O (stereo partly drawn) [Compound 5, (5 S, 8S)-5-Isobutyl-3,6,11-trioxo-8-(((S)-2-oxopyrrolidin-3-yl)methyl)-1-phenyl-2,10-dioxa-4,7-diazahexadecane-9-sulfonate] | 300 nM | 2.8 µM | – | – | –
O=C(N[C@@H](CC1CCCCC1)C(=O)N[C@@H](C[C@@H]1CCNC1=O)C(O)S(=O)(=O)O)OCc1cccc(Cl)c1 (stereo partly drawn) [Compound 26, reference compound] | – | – | – | – | EC50 [1, 8]: 20 nM; IC50 ([2]; in μM, read-out: IC50): 0.1 µM
CCCC(=O)OC([C@H](C[C@@H]1CCNC1=O)NC(=O)[C@H](CC(C)C)NC(=O)OCc1ccccc1)S(=O)(=O)O (stereo partly drawn) [Compound 3, (5S,8S)-5-Isobutyl-3,6,11-trioxo-8-(((S)-2-oxopyrrolidin-3-yl)methyl)-1-phenyl-2,10-dioxa-4,7-diazatetradecane-9-sulfonate] | 1300 nM | 3.7 µM | – | – | –
CC(=O)OC([C@H](C[C@@H]1CCNC1=O)NC(=O)[C@H](CC1CCCCC1)NC(=O)OCc1cccc(Cl)c1)S(=O)(=O)O (stereo partly drawn) [Compound 9, (5 S, 8S)-1-(3-Chlorophenyl)-5-(cyclohexylmethyl)-3,6,11-trioxo-8-(((S)-2-oxopyrrolidin-3-yl)methyl)-2,10-dioxa-4,7-diazadodecane-9-sulfonate] | 30 nM | 0.08 µM | – | – | –
COC(=O)C(C)NC(=O)OC([C@H](C[C@@H]1CCNC1=O)NC(=O)[C@H](CC1CCCCC1)NC(=O)OCc1cccc(Cl)c1)S(=O)(=O)O (stereo partly drawn) [Compound 21, (5 S, 8S)-1-(3-Chlorophenyl)-5-(cyclohexylmethyl)-13-methyl-3,6,11,14-tetraoxo-8-(((S)-2-oxopyrrolidin-3-yl)methyl)-2,10,15-trioxa-4,7,12-triazahexadecane-9-sulfonate] | – | – | 25 nM | 0.8 µM | –
CCC(=O)OC([C@H](CC1CCNC1=O)NC(=O)[C@H](CC1CCCCC1)NC(=O)OCc1cccc(Cl)c1)S(=O)(=O)O (stereo partly drawn) [Compound 10, (5 S, 8S)-1-(3-chlorophenyl)-5-(cyclohexylmethyl)-3,6,11-trioxo-8-((2-oxopyrrolidin-3-yl)methyl)-2,10-dioxa-4,7-diazatridecane-9-sulfonate] | 25 nM | 0.1 µM | – | – | –
COC(=O)C(C)NC(=O)OC([C@H](C[C@@H]1CCNC1=O)NC(=O)[C@H](CC(C)C)NC(=O)OCc1ccccc1)S(=O)(=O)O (stereo partly drawn) [Compound 19, (5 S,8S)-5-Isobutyl-13-methyl-3,6,11,14-tetraoxo-8-(((S)-2-oxopyrrolidin-3-yl)methyl)-1-phenyl-2,10,15-trioxa-4,7,12-triazahexadecane-9-sulfonate] | – | – | 300 nM | 1.8 µM | –
COC(=O)CNC(=O)OC([C@H](C[C@@H]1CCNC1=O)NC(=O)[C@H](CC(C)C)NC(=O)OCc1ccccc1)S(=O)(=O)O (stereo partly drawn) [Compound 18, (5 S,8S)-5-Isobutyl-3,6,11,14-tetraoxo-8-(((S)-2-oxopyrrolidin-3-yl)methyl)-1-phenyl-2,10,15-trioxa-4,7,12-triazahexadecane-9-sulfonate] | – | – | 400 nM | 3.1 µM | –
CC(C)C(=O)OC([C@H](C[C@@H]1CCNC1=O)NC(=O)[C@H](CC1CCCCC1)NC(=O)OCc1cccc(Cl)c1)S(=O)(=O)O (stereo partly drawn) [Compound 13, (5 S, 8S)-1-(3-Chlorophenyl)-5-(cyclohexylmethyl)-12-methyl-3,6,11-trioxo-8-(((S)-2-oxopyrrolidin-3-yl)methyl)-2,10-dioxa-4,7-diazatridecane-9-sulfonate] | 30 nM | 0.3 µM | – | – | –
CCCCC(=O)OC([C@H](C[C@@H]1CCNC1=O)NC(=O)[C@H](CC(C)C)NC(=O)OCc1ccccc1)S(=O)(=O)O (stereo partly drawn) [Compound 4, (5S,8S)-5-Isobutyl-3,6,11-trioxo-8-(((S)-2-oxopyrrolidin-3-yl)methyl)-1-phenyl-2,10-dioxa-4,7-diazapentadecane-9-sulfonate] | 1400 nM | 3.5 µM | – | – | –
CC(C)C[C@H](NC(=O)OCc1ccccc1)C(=O)N[C@@H](C[C@@H]1CCNC1=O)C(O)S(=O)(=O)O (stereo partly drawn) [Compound 24, reference compound] | – | – | – | – | EC50 [1, 8]: 300 nM; IC50 ([2]; in μM, read-out: IC50): 0.8 µM
CC(C)C[C@H](NC(=O)OCc1ccccc1)C(=O)N[C@@H](C[C@@H]1CCNC1=O)C(OC(=O)c1ccccc1)S(=O)(=O)O (stereo partly drawn) [Compound 7, (5S,8S)-5-Isobutyl-3,6,11-trioxo-8-(((S)-2-oxopyrrolidin-3-yl)methyl)-1,11-diphenyl-2,10-dioxa-4,7-diazaundecane-9-sulfonate] | 800 nM | 7.2 µM | – | – | –
